Assays:
Assay in all cases: KinaseProfiler off-target kinase profiling
Type in all cases: biochemical
Details in all cases: 10 μM, ATP near Km
EphA5 = EphA5 (Homo sapiens (Human), UniProt P54756)
How it was run: (§1)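 Single-point profiling, 10 μM, duplicates, ATP ~Km; output POC (mean of 2).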

GRK5 = GRK5 (Homo sapiens (Human), UniProt P34947)
How it was run: as §1

MINK = MINK (Homo sapiens (Human), UniProt Q8N4C8)
How it was run: as §1

BrSK2 = BrSK2 (Homo sapiens (Human), UniProt Q8IWQ3)
How it was run: as §1

Plk1 = Plk1 (Homo sapiens (Human), UniProt P53350)
How it was run: as §1

ROCK-II = ROCK-II (Homo sapiens (Human), UniProt O75116)
How it was run: as §1

Tie2 = Tie2 (Homo sapiens (Human), UniProt Q02763)
How it was run: as §1

CDK3/cyclinE = CDK3/cyclinE (Homo sapiens (Human), UniProt Q00526)
How it was run: as §1

Rsk2 = Rsk2 (Homo sapiens (Human), UniProt P51812)
How it was run: as §1

MARK1 = MARK1 (Homo sapiens (Human), UniProt Q9P0L2)
How it was run: as §1

PDGFRalpha = PDGFRalpha (Homo sapiens (Human), UniProt P16234)
How it was run: as §1

NLK = NLK (Homo sapiens (Human), UniProt Q9UBE8)
How it was run: as §1

DMPK = DMPK (Homo sapiens (Human), UniProt Q09013)
How it was run: as §1

TNK2 = TNK2 (Homo sapiens (Human), UniProt Q07912)
How it was run: as §1

Abl2 = Abl2 (Homo sapiens (Human), UniProt P42684)
How it was run: as §1

Fes = Fes (Homo sapiens (Human), UniProt P07332)
How it was run: as §1

EGFR = EGFR (Homo sapiens (Human), UniProt P00533)
How it was run: as §1

TrkA = TrkA (Homo sapiens (Human), UniProt P04629)
How it was run: as §1

TSSK2 = TSSK2 (Homo sapiens (Human), UniProt Q96PF2)
How it was run: as §1

PrKX = PrKX (Homo sapiens (Human), UniProt P51817)
How it was run: as §1

FAK2 = FAK2 (Homo sapiens (Human), UniProt Q14289)
How it was run: as §1

GSK3alpha = GSK3alpha (Homo sapiens (Human), UniProt P49840)
How it was run: as §1

MST1 = MST1 (Homo sapiens (Human), UniProt Q13043)
How it was run: as §1

JNK3 = JNK3 (Homo sapiens (Human), UniProt P53779)
How it was run: as §1

PASK = PASK (Homo sapiens (Human), UniProt Q96RG2)
How it was run: as §1

Rsk3 = Rsk3 (Homo sapiens (Human), UniProt Q15349)
How it was run: as §1

JAK3 = JAK3 (Homo sapiens (Human), UniProt P52333)
How it was run: as §1

Flt4 = Flt4 (Homo sapiens (Human), UniProt P35916)
How it was run: as §1

TAK1 = TAK1 (Homo sapiens (Human), UniProt O43318)
How it was run: as §1

Fgr = Fgr (Homo sapiens (Human), UniProt P09769)
How it was run: as §1

NEK3 = NEK3 (Homo sapiens (Human), UniProt P51956)
How it was run: as §1

DAPK2 = DAPK2 (Homo sapiens (Human), UniProt Q9UIK4)
How it was run: as §1

Hck = Hck (Homo sapiens (Human), UniProt P08631)
How it was run: as §1

PKCgamma = PKCgamma (Homo sapiens (Human), UniProt P05129)
How it was run: as §1

PKD2 = PKD2 (Homo sapiens (Human), UniProt Q9BZL6)
How it was run: as §1

ErbB4 = ErbB4 (Homo sapiens (Human), UniProt Q15303)
How it was run: as §1

JNK1alpha1 = JNK1alpha1 (Homo sapiens (Human), UniProt P45983)
How it was run: as §1

PKCeta = PKCeta (Homo sapiens (Human), UniProt P24723)
How it was run: as §1

CLK2 = CLK2 (Homo sapiens (Human), UniProt P49760)
How it was run: as §1

ULK2 = ULK2 (Homo sapiens (Human), UniProt Q8IYT8)
How it was run: as §1

NLK, sequence (Q9UBE8 whole entry): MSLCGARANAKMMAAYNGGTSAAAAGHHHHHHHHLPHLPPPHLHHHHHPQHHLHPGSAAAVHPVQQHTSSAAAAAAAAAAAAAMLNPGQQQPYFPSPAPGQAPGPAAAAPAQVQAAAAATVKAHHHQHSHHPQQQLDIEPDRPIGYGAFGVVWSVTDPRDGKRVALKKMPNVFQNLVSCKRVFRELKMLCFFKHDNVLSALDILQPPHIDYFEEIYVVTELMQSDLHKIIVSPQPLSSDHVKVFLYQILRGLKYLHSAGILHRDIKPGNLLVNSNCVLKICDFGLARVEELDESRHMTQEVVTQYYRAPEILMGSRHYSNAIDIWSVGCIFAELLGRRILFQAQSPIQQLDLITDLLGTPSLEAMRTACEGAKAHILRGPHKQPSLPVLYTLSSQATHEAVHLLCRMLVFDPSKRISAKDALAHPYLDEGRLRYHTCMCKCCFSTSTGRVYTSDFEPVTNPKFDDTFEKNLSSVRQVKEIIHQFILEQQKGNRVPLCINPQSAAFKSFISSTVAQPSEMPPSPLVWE
FAK2, sequence (Q14289 whole entry): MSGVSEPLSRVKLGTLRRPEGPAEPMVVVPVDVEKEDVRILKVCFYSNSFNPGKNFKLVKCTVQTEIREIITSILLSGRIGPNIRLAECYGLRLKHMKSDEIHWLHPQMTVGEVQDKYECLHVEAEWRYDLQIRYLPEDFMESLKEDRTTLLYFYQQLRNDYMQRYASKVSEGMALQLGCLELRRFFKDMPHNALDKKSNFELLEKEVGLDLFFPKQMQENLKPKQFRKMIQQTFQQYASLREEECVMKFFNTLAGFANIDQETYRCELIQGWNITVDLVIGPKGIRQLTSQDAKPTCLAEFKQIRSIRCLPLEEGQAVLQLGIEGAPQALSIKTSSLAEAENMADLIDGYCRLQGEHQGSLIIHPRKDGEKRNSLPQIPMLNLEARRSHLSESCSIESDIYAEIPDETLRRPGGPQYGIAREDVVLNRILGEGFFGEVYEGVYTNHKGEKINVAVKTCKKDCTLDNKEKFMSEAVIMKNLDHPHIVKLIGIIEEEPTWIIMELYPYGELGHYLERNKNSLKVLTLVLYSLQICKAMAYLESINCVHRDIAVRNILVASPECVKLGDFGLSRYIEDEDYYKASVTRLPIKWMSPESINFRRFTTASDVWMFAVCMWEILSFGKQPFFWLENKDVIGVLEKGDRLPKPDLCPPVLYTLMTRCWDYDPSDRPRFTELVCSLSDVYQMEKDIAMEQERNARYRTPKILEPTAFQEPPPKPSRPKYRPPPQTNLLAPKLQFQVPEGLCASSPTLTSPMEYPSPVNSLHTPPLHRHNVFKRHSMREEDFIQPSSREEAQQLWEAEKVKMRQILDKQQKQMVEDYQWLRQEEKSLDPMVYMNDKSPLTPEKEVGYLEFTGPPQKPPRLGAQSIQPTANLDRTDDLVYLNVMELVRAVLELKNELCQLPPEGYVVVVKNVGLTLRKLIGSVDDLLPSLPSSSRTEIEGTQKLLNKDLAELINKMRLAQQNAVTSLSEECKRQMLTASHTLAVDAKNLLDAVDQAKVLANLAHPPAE
DAPK2, sequence (Q9UIK4 whole entry): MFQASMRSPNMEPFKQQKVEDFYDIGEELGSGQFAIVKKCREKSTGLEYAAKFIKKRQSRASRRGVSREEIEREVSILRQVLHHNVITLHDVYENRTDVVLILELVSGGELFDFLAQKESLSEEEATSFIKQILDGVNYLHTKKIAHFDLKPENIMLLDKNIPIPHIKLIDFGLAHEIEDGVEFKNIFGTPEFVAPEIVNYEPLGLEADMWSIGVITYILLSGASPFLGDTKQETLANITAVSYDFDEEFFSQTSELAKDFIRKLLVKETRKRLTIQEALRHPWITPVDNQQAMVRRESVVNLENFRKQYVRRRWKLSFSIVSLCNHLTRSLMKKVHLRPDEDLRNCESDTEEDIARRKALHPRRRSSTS
ULK2, sequence (Q8IYT8 whole entry): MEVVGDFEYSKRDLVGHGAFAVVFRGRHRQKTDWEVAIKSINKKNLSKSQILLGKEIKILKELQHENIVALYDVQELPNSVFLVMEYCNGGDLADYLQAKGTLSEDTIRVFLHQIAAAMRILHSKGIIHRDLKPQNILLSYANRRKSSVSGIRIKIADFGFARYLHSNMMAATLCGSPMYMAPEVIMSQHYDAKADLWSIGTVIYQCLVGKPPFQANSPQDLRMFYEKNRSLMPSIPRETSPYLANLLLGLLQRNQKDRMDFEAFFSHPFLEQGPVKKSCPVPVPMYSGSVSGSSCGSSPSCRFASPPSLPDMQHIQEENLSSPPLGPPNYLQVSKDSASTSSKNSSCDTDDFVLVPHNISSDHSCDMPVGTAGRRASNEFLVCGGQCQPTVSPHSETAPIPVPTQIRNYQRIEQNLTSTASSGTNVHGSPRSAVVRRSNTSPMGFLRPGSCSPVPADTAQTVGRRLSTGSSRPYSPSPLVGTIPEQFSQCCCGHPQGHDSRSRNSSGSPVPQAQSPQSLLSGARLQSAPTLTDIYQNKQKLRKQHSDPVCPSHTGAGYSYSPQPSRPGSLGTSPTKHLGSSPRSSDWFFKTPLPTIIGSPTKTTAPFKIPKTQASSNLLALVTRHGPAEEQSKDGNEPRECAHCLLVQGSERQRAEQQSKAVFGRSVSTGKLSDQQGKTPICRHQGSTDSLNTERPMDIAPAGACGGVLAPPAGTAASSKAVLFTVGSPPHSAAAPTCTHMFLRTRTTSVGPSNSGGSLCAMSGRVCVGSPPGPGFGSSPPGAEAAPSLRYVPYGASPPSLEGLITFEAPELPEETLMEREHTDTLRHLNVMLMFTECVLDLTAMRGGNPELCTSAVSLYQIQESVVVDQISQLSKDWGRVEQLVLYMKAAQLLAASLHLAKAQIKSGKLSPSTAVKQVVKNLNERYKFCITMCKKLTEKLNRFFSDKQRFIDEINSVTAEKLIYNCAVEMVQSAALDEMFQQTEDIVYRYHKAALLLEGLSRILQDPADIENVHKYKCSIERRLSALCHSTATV
ROCK-II, sequence (O75116 whole entry): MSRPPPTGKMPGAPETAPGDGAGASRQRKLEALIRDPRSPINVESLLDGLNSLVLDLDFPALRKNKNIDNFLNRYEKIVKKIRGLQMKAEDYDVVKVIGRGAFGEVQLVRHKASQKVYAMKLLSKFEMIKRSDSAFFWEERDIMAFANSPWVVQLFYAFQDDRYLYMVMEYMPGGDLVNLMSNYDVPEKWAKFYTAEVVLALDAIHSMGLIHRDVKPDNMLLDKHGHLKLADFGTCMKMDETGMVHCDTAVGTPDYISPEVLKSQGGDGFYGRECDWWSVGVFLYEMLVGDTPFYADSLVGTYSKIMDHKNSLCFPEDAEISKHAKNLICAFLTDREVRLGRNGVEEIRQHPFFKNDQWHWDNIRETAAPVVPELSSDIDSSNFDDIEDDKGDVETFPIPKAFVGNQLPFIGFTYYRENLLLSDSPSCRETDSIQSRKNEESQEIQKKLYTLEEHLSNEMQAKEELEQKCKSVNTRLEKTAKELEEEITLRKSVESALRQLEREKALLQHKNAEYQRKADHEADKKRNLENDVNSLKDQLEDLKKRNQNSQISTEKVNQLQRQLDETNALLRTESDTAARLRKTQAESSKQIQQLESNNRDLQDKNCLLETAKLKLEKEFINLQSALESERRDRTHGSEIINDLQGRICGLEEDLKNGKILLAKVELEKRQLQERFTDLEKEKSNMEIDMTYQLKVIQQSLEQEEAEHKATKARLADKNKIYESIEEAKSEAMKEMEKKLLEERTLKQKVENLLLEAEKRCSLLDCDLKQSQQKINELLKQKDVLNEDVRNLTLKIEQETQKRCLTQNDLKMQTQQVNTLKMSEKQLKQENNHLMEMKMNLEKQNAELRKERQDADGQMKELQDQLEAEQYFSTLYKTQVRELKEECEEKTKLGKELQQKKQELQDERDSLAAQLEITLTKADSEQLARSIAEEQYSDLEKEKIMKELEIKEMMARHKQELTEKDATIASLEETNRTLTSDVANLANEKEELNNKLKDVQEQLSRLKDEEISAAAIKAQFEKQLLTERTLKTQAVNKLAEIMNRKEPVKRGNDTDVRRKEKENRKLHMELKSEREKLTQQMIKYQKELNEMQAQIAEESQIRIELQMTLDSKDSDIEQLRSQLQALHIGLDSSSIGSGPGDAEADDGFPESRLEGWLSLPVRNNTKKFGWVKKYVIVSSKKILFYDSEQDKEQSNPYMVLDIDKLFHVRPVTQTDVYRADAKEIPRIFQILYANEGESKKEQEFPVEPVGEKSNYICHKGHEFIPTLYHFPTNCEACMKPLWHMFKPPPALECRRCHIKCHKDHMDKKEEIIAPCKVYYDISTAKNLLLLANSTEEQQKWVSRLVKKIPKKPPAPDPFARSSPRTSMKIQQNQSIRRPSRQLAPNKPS
PKCeta, sequence (P24723 whole entry): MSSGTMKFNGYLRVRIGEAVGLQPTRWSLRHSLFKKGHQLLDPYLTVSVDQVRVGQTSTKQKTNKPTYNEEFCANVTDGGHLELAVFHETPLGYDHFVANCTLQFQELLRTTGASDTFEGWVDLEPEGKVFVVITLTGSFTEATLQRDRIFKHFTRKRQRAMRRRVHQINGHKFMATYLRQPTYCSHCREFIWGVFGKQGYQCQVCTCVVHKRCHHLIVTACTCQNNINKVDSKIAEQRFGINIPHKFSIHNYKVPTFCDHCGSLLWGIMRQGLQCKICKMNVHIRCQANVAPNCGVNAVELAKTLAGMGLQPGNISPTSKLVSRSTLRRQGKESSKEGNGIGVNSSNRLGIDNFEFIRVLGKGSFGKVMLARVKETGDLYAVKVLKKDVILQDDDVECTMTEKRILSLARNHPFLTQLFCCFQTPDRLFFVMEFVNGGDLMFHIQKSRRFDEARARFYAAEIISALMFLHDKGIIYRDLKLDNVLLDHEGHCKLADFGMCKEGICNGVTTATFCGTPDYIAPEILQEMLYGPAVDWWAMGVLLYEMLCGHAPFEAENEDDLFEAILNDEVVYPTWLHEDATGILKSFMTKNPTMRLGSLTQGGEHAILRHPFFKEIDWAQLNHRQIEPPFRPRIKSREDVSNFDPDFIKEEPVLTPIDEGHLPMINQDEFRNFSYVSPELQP

Avg POC (EphA5) [POC]	Avg POC (GRK5) [POC]	Avg POC (MINK) [POC]	Avg POC (BrSK2) [POC]	Avg POC (Plk1) [POC]	Avg POC (ROCK-II) [POC]	Avg POC (Tie2) [POC]	Avg POC (CDK3/cyclinE) [POC]	Avg POC (Rsk2) [POC]	Avg POC (MARK1) [POC]	Avg POC (PDGFRalpha) [POC]	Avg POC (NLK) [POC]	Avg POC (DMPK) [POC]	Avg POC (TNK2) [POC]	Avg POC (Abl2) [POC]	Avg POC (Fes) [POC]	Avg POC (EGFR) [POC]	Avg POC (TrkA) [POC]	Avg POC (TSSK2) [POC]	Avg POC (PrKX) [POC]	other results	SMILES
102.5	103.5	98	93	100	102.5	71.5	98	106	97.5	110.5	111.5	98.5	109.5	101	135.5	105.5	0.5	107	110.5	Avg POC (FAK2): 99.5 POC; Avg POC (GSK3alpha): 94 POC; Avg POC (MST1): 94 POC; Avg POC (JNK3): 111.5 POC; Avg POC (PASK): 102.5 POC; Avg POC (Rsk3): 98 POC; Avg POC (JAK3): 103.5 POC; Avg POC (Flt4): 95 POC; Avg POC (TAK1): 93 POC; Avg POC (Fgr): 108.5 POC; Avg POC (NEK3): 97 POC; Avg POC (DAPK2): 109 POC; Avg POC (Hck): 116.5 POC; Avg POC (PKCgamma): 100.5 POC; Avg POC (PKD2): 101.5 POC; Avg POC (ErbB4): 98 POC; Avg POC (JNK1alpha1): 98 POC; Avg POC (PKCeta): 108.5 POC; Avg POC (CLK2): 125 POC; Avg POC (ULK2): 96.5 POC	COCCN1C[C@@H](NC(=O)Nc2c(C)c(-c3ccnc(C)c3)nn2-c2ccccc2)[C@H](c2ccc(F)c(F)c2)C1 [Example 2, 1-((3S,4R)-4-(3,4-difluorophenyl)-1-(2-methoxyethyl)pyrrolidin-3-yl)-3-(4-methyl-3-(2-methylpyridin-4-yl)-1-phenyl-1H-pyrazol-5-yl)urea]
101.5	91	89.5	99	113	93.5	71	100.5	99.5	98	114.5	108.5	105	97.5	95.5	125	96.5	1	107.5	94	Avg POC (FAK2): 107 POC; Avg POC (GSK3alpha): 101.5 POC; Avg POC (MST1): 97.5 POC; Avg POC (JNK3): 121 POC; Avg POC (PASK): 100.5 POC; Avg POC (Rsk3): 96 POC; Avg POC (JAK3): 101 POC; Avg POC (Flt4): 92.5 POC; Avg POC (TAK1): 88 POC; Avg POC (Fgr): 80.5 POC; Avg POC (NEK3): 101 POC; Avg POC (DAPK2): 107 POC; Avg POC (Hck): 108.5 POC; Avg POC (PKCgamma): 89.5 POC; Avg POC (PKD2): 108 POC; Avg POC (ErbB4): 101.5 POC; Avg POC (JNK1alpha1): 105 POC; Avg POC (PKCeta): 100 POC; Avg POC (CLK2): 111.5 POC; Avg POC (ULK2): 106.5 POC	COCCN1C[C@@H](NC(=O)Nc2c(C)c(-c3cnc(C)nc3)nn2-c2ccccc2)[C@H](c2cc(F)cc(F)c2)C1 [Example 14, 1-((3S,4R)-4-(3,5-difluorophenyl)-1-(2-methoxyethyl)pyrrolidin-3-yl)-3-(4-methyl-3-(2-methylpyrimidin-5-yl)-1-phenyl-1H-pyrazol-5-yl)urea]
